Structures are written as SMILES. Structures can show the parent of a compound that is named as a salt.

For 43 molecules, EC50 results are on record in US8815909B2, “Diaminocyclohexane compounds and uses thereof” (Bristol-Myers Squibb Company, priority 2011, dated 2014).

T1 sequence (P50391 whole entry): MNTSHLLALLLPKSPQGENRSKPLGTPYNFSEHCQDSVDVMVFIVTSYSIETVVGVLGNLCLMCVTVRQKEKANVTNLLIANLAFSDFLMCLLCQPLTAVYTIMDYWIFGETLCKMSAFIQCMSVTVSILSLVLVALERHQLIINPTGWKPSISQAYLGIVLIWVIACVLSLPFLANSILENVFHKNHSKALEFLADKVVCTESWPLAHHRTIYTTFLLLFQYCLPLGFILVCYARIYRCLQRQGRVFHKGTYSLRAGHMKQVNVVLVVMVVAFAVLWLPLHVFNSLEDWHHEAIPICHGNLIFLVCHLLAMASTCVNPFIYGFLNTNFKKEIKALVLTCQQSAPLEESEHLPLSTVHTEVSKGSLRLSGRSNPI

One experiment has as its target T1, human Y4 receptor (Homo sapiens, UniProt P50391).
T1 construct: expressed in transfected cells
As to the kind of experiment: NPY4 cAMP HTRF Agonist Assay (inhibitory cAMP assay, Gi activation by Y4 agonism). The class given is cell-based. Conditions: TABLE 2, R2 is Phenyl-CN; read-out: hY4 CAMP EC50. The method in brief:
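CHO cells stably expressing human Y4, 5000/well, exposed to compound with forskolin and IBMX in PBS for 30 min at room temperature. Gi-mediated inhibition of cAMP then measured by HTRF after 1 h with d2-conjugate and anti-cAMP cryptate.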
Take `N#Cc1ccc(N2CCC[C@H](N[C@@H]3CCCC[C@H]3Nc3cc(-c4cccc5[nH]ncc45)ccn3)C2)cc1` [Example 211]: the EC50 is 22 nM.

Take `N#Cc1ccc(N2CCC[C@H](N[C@@H]3CCCC[C@H]3Nc3cc(-c4ccccc4N)ccn3)C2)cc1` [Example 275]: the EC50 came out at 872 nM.

Turning to `C[C@H](O)c1cccc(-c2ccnc(N[C@@H]3CCCC[C@H]3N[C@H]3CCCN(c4ccc(C#N)cc4)C3)c2)c1` [Example 268], the EC50 stood at 8 nM.

On to `N#Cc1ccc(N2CCC[C@H](N[C@@H]3CCCC[C@H]3Nc3cc4ccccc4cn3)C2)cc1` [Example 281], for which the concentration for a half-maximal effect (EC50) came to 152 nM.

For the molecule `N#Cc1ccc(N2CCC[C@H](N[C@@H]3CCCC[C@H]3Nc3cc(-c4ccco4)ccn3)C2)cc1` [Example 247], the EC50 worked out at 15 nM.

Turning to `C=C(C)c1ccnc(N[C@@H]2CCCC[C@H]2N[C@H]2CCCN(c3ccc(C#N)cc3)C2)c1` [Example 234], the concentration giving a half-maximal response (EC50) was 299 nM.

With `COC(=O)Nc1cccc(-c2ccnc(N[C@@H]3CCCC[C@H]3N[C@H]3CCCN(c4ccc(C#N)cc4)C3)c2)c1` [Example 200], the concentration giving a half-maximal response (EC50) turned out to be 3 nM.

Consider `COC(=O)c1ccccc1-c1ccnc(N[C@@H]2CCCC[C@H]2N[C@H]2CCCN(c3ccc(C#N)cc3)C2)c1` [Example 203], for which the half-maximal effective concentration (EC50) came out at 211 nM.

Regarding `N#Cc1ccc(N2CCC[C@H](N[C@@H]3CCCC[C@H]3Nc3cc(-c4ccccc4OC(F)(F)F)ccn3)C2)cc1` [Example 241], the concentration giving a half-maximal response (EC50) stood at 289 nM.

`N#Cc1ccc(N2CCC[C@H](N[C@@H]3CCCC[C@H]3Nc3ncc4cc(F)ccc4n3)C2)cc1` [Example 283]: the EC50 was 308 nM.

With `COC(=O)c1cccn1-c1ccnc(N[C@@H]2CCCC[C@H]2N[C@H]2CCCN(c3ccc(C#N)cc3)C2)c1` [Example 204], the EC50 amounted to 147 nM.

Staying with this experiment, now noted: TABLE 3, R2 is Phenyl-NO2; read-out: hY4 CAMP EC50.
For `N#Cc1ccc(-c2cnc(N[C@@H]3CCCC[C@H]3N[C@H]3CCCN(c4ccc([N+](=O)[O-])cc4)C3)o2)cc1` [Example 285], the 50% effective concentration (EC50) came to 26 nM.

The same experiment, now with this note: TABLE 4, R2 is Pyridinyl-CN; read-out: hY4 CAMP EC50.
`CC(O)c1cccc(-c2ccnc(N[C@@H]3CCCC[C@H]3NC3CCCN(c4ccc(C#N)nc4)C3)c2)c1` (stereo partly shown) [Example 313]: the 50% effective concentration (EC50) turned out to be 68 nM.

On to `N#Cc1ccc(N2CCC[C@H](N[C@@H]3CCCC[C@H]3Nc3cc(-c4cccc(C(N)=O)c4)ccn3)C2)cn1` [Example 316], for which the concentration giving a half-maximal response (EC50) was 165 nM.

The experiment is the same for the next values; noted with them: TABLE 5, R2 is Pyridinyl-CF3; read-out: hY4 CAMP EC50.
As to `NC(=O)c1cccc(-c2ccnc(N[C@@H]3CCCC[C@H]3N[C@H]3C[C@@H]4C[C@H]3N(c3ccc(C(F)(F)F)nc3)C4)c2)c1` [Example 327], the concentration giving a half-maximal response (EC50) was 180 nM.

Staying with this experiment, now noted: human Y4 receptor, cAMP; read-out: hY4 CAMP EC50.
Consider `Cc1nnc(-c2ccc(N3CCC[C@H](N[C@@H]4CCCC[C@H]4Nc4cc(-c5ccc(OC(F)F)cc5)ccn4)C3)cc2)o1` [Example 375], for which the concentration for a half-maximal effect (EC50) is 217 nM.

For the molecule `Cc1nnc(-c2ccc(N3CCCC(N[C@@H]4CCCC[C@H]4Nc4cc(-c5cccnc5)ccn4)C3)cc2)o1` (stereo partly shown) [Example 345], the EC50 was 64 nM.

For `N#Cc1cc(N2C[C@@H]3C[C@H](N[C@@H]4CCCC[C@H]4Nc4ncc(-c5cccc(C(N)=O)c5)o4)[C@H]2C3)ncn1` [Example 439], the half-maximal effective concentration (EC50) came to 578 nM.

In the case of `NC(=O)c1cc(-c2cnc(N[C@@H]3CCCC[C@H]3N[C@H]3CCCN(c4cnc(C(F)(F)F)nc4)C3)o2)ccn1` [Example 425], the half-maximal effective concentration (EC50) came out at 15 nM.

Regarding `O=C(NC1CC1)c1cccc(-c2cnc(N[C@@H]3CCCC[C@H]3N[C@H]3CCCN(c4ccc5ncnn5c4)C3)o2)c1` [Example 486], the concentration giving a half-maximal response (EC50) is 78 nM.

As to `Cc1noc(-c2ccc(N3CCC[C@H](N[C@@H]4CCCC[C@H]4Nc4cc(-c5cccc(C(N)=O)c5)ccn4)C3)cc2)n1` [Example 374], the 50% effective concentration (EC50) worked out at 2 nM.

`Cc1nnc(-c2ccc(N3CCCC(N[C@@H]4CCCC[C@H]4Nc4cc(-c5ccc(Cl)cc5)ccn4)C3)cc2)o1` (stereo partly shown) [Example 365]: the half-maximal effective concentration (EC50) is 52 nM.

On to `CC(C)(C)COC(=O)Nc1cccc(-c2cnc(N[C@@H]3CCCC[C@H]3N[C@H]3CCCN(c4cnc(C(F)(F)F)nc4)C3)o2)c1` [Example 420], for which the concentration for a half-maximal effect (EC50) is 212 nM.

As for `COC(=O)Nc1cccc(-c2ccnc(N[C@@H]3CCCC[C@H]3N[C@H]3CCCN(c4ccc(-c5ccccc5)cc4)C3)c2)c1` [Example 516], the concentration for a half-maximal effect (EC50) was 17 nM.

Staying with this experiment, now noted: human Y4 stable CHO clonal cells, forskolin + IBMX; read-out: NPY4 cAMP HTRF Agonist Assay EC50.
Regarding `O=[N+]([O-])c1ccc(N2CCC[C@H](N[C@@H]3CCCC[C@H]3Nc3nccc(-c4ccc(OC(F)(F)F)cc4)n3)C2)cc1` [Example 28, (1R,2R)—N1-((S)-1-(4-Nitrophenyl)piperidin-3-yl)-N2-(4-(4-(trifluoromethoxy)phenyl)pyrimidin-2-yl)cyclohexane-1,2-diamine], the EC50 is 217 nM.

Take `N#Cc1ccc(N2CCC[C@H](N[C@@H]3CCCC[C@H]3Nc3ncc(-c4ccccc4)o3)C2)cc1F` [Example 48, 2-Fluoro-4-((S)-3-((1R,2R)-2-(5-phenyloxazol-2-ylamino)cyclohexylamino)piperidin-1-yl)benzonitrile bis-trifluoroacetate]: the EC50 is 6 nM.

Turning to `FC(F)(F)Oc1ccc(-c2cnc(N[C@@H]3CCCC[C@H]3N[C@H]3CCCN(c4ccc(-n5cccn5)cc4)C3)o2)cc1` [Example 63, (1R,2R)—N1-((S)-1-(4-(1H-Pyrazol-1-yl)phenyl)piperidin-3-yl)-N2-(5-(4-(trifluoromethoxy)phenyl)oxazol-2-yl)cyclohexane-1,2-diamine trifluoroacetate], the EC50 turned out to be 174 nM.

Take `CC(C)(C)Oc1ccc(-c2cnc(N[C@@H]3CCCC[C@H]3N[C@H]3CCCN(c4ccc([N+](=O)[O-])cc4)C3)o2)cc1` [Example 14, (1R,2R)—N1-(5-(4-tert-Butoxyphenyl)oxazol-2-yl)-N2-((S)-1-(4-nitrophenyl)piperidin-3-yl)cyclohexane-1,2-diamine]: the concentration giving a half-maximal response (EC50) was 920 nM.

Turning to `N#Cc1cnc(N[C@@H]2CCCC[C@H]2N[C@H]2CCCN(c3ccc(C(F)(F)F)cc3)C2)o1` [Example 113, 2-(((1R,2R)-2-(((S)-1-(4-(trifluoromethyl)phenyl)piperidin-3-yl)amino)cyclohexyl)amino)oxazole-5-carbonitrile], the EC50 was 91 nM.

For `O=[N+]([O-])c1ccc(N2CCC[C@H](N[C@@H]3CCCC[C@H]3Nc3ncc(-c4ccc(C(F)(F)F)cc4)o3)C2)cc1` [Example 7, (1R,2R)—N1-((S)-1-(4-Nitrophenyl)piperidin-3-yl)-N2-(5-(4-(trifluoromethyl)phenyl)oxazol-2-yl)cyclohexane-1,2-diamine], the concentration giving a half-maximal response (EC50) is 185 nM.

`FC(F)(F)Oc1ccc(N2CCC[C@H](N[C@@H]3CCCC[C@H]3Nc3ncc(-c4ccccc4)o3)C2)cc1` [Example 86, (1R,2R)—N1-(5-Phenyloxazol-2-yl)-N2-((S)-1-(4-(trifluoromethoxy)phenyl)piperidin-3-yl)cyclohexane-1,2-diamine]: the EC50 amounted to 91 nM.

As for `Cc1cc(OC(F)(F)F)ccc1-c1cnc(N[C@@H]2CCCC[C@H]2N[C@H]2CCCN(c3ccc([N+](=O)[O-])cc3)C2)o1` [Example 11, (1R,2R)—N1-(5-(2-Methyl-4-(trifluoromethoxy)phenyl)oxazol-2-yl)-N2-((S)-1-(4-nitrophenyl)piperidin-3-yl)cyclohexane-1,2-diamine], the half-maximal effective concentration (EC50) is 49 nM.

`CC(C)(C)OC(=O)/C=C\c1ccnc(N[C@@H]2CCCC[C@H]2N[C@H]2CCCN(c3ccc(C#N)cc3)C2)c1` [Example 108, (Z)-tert-butyl 3-(2-(((1R,2R)-2-(((S)-1-(4-cyanophenyl)piperidin-3-yl)amino)cyclohexyl)amino)pyridin-4-yl)acrylate]: the 50% effective concentration (EC50) was found to be 21 nM.

On to `N#Cc1ccc(N2CCC[C@H](N[C@@H]3CCCC[C@H]3Nc3ncc(-c4ccccc4F)o3)C2)cc1Cl` [Example 39, 2-Chloro-4-((S)-3-((1R,2R)-2-(5-(2-fluorophenyl)oxazol-2-ylamino)cyclohexylamino)piperidin-1-yl)benzonitrile bis-trifluoroacetate], for which the concentration giving a half-maximal response (EC50) was determined as 35 nM.

For the molecule `O=[N+]([O-])c1ccc(N2C[C@@H]3C[C@H](N[C@@H]4CCCC[C@H]4Nc4ncc(-c5ccccc5F)o4)[C@H]2C3)cc1` [Example 15, (1R,2R)—N1-(5-(2-Fluorophenyl)oxazol-2-yl)-N2-((1R,4R,6S)-2-(4-nitrophenyl)-2-azabicyclo[2.2.1]heptan-6-yl)cyclohexane-1,2-diamine], the EC50 was 8 nM.

As to `N#Cc1ccc(N2CCC[C@H](N[C@@H]3CCCC[C@H]3Nc3cc(-c4ccc(OC(F)F)cc4)ccn3)C2)cc1` [Example 43, 4-((S)-3-((1R,2R)-2-(4-(4-(Difluoromethoxy)phenyl)pyridin-2-ylamino)cyclohexylamino)piperidin-1-yl)benzonitrile tris-trifluoroacetate], the EC50 was 18 nM.

Still in this experiment, the particulars now being: second TABLE 1, R2 is Phenyl-CF3; read-out: hY4 CAMP EC50.
Turning to `FC(F)(F)Oc1ccccc1-c1cnc(N[C@@H]2CCCC[C@H]2N[C@H]2CCCN(c3ccc(C(F)(F)F)cc3)C2)o1` [Example 197], the EC50 was 12 nM.

Regarding `FC(F)(F)c1ccc(N2CCC[C@H](N[C@@H]3CCCC[C@H]3Nc3cc(-c4cccc(N5CCCC5)c4)ccn3)C2)cc1` [Example 164], the concentration giving a half-maximal response (EC50) came to 104 nM.

`CC(C)CNC(=O)c1cccc(-c2ccnc(N[C@@H]3CCCC[C@H]3N[C@H]3CCCN(c4ccc(C(F)(F)F)cc4)C3)c2)c1` [Example 148]: the EC50 is 205 nM.

For `CCNC(=O)c1cccc(-c2cnc(N[C@@H]3CCCC[C@H]3N[C@H]3CCCN(c4ccc(C(F)(F)F)cc4)C3)o2)c1` [Example 124], the 50% effective concentration (EC50) was 2 nM.

Regarding `O=C(Nc1cccc(-c2ccnc(N[C@@H]3CCCC[C@H]3N[C@H]3CCCN(c4ccc(C(F)(F)F)cc4)C3)c2)c1)OCCF` [Example 137], the EC50 came out at 2 nM.

Take `CC(C)OC(=O)Nc1cccc(-c2ccnc(N[C@@H]3CCCC[C@H]3N[C@H]3CCCN(c4ccc(C(F)(F)F)cc4)C3)c2)c1` [Example 134]: the concentration for a half-maximal effect (EC50) worked out at 13 nM.

Regarding `CCCC#Cc1ccnc(N[C@@H]2CCCC[C@H]2N[C@H]2CCCN(c3ccc(C(F)(F)F)cc3)C2)c1` [Example 185], the EC50 amounted to 218 nM.

As a reminder, the EC50 is the concentration needed to bring the measured effect to its halfway point.
